# Laboratory results: US8318805B2, “Modulation of nitric oxide synthases by betaines” (priority 2004, dated 2012)
# Several values for one entry are separate records, joined by “and”; a condition that tells them apart may be missing. Equal entries are not always repeated.
# Assays:
# [1] = system: photochemically-induced brain ischemia; assay: Photochemically-induced (rose Bengal) focal cerebral ischemia on rats; assay type: in vivo, rat; conditions: for Red Ischemic Area, Excluding Blue Evan Penumbra / Weight of ischemic area: mean
# Text: The aim of this study was to evaluate the activity of Betaine on thrombus formation in a rat model of photochemically-induced brain ischemia. The method (11) is based on local free radical release exerted by filtered light acting on rose Bengal previously injected in animals. Free radicals are known to induce endothelial damage, followed by platelet aggregation, thrombus formation and vascular occlusion. Briefly, an optic fiber in close contact shone denuded intact skulls (diameter of the illuminated circle 5.4 mm, luminance at the entrance of optic fiber was 5.6×10^6 Ix). After turning on the lamp, an infusion through the caudal vein of a 5 mg/mL (w/v) solution of rose Bengal in saline was started. Two mL of the solution were administered at a flow rate of 0.1 mL/min. After 20 min, at the end of the infusion, the lamp was turned off. [table] Evan's Blue solution (2% w/v) in saline was intravenously injected (1 mL/rat), 18-20 h after the ischemia induction in order to reveal the BBB breakdown. The rats were sacrificed 20 min after Evan's Blue injections and their brains removed. The infarcted area was visually verified, photographed by digital camera and then weighed.
# [2] = system: Tissue Factor Pathway Inhibitor (TFPI); assay: TFPI concentration plasma levels in healthy volunteers after repeated betaine ingestion; assay type: in vivo, human; conditions: for TFPI CONCENTRATION: individual donors
# Experimental: (§1) After obtaining the baseline blood samples (sample a) from fastened normal healthy volunteers (n=10), Betaine was repeatedly administered in daily doses of 6 g. (2×3) for 1 week. After obtaining the 1 week blood sample from fastened volunteers (sample b) Betaine was again administered orally at a dose of 3 g. and a third blood sample drawn after one hour (sample c). […] The blood samples were centrifuged and the separated platelet poor plasma was then aliquoted and frozen at −70° C. for subsequent analysis for nitric oxide (NO), tissue factor pathway inhibitor (TFPI) activity levels and global clotting assays.
# (§2) The samples are identified for each donor as number of donor (1, 2, etc) followed by the letter of the sample (a, b, c).
# [3] = system: total nitric oxide; assay: Nitric oxide plasma levels in healthy volunteers after repeated betaine ingestion; assay type: in vivo, human; parameters: Nitric oxide plasma levels Conc / Nitric oxide plasma levels Conc (×2): unit not given here; conditions: for Nitric oxide plasma levels Conc / Nitric oxide plasma levels Conc (×2): individual donors
# Experimental: as §1, §2
# [4] = system: nitric oxide; assay: Nitric oxide production in healthy volunteers after single betaine ingestion (plasma, Griess reaction); assay type: in vivo, human; parameters: Conc. (nitric oxide) / Conc. (2) (nitric oxide): unit not given here
# Experimental: Betaine is administrated at 75 mg/kg single oral dose at T0 to fastened healthy volunteers just after the basal blood sample. At T0 and T0+60 mn fresh blood samples are centrifuged to obtain plasma.
# The samples are then tested for nitric oxide with the Griess reaction.
# [5] = system: Pulmonary Arterial Hypertension; assay: Betaine added to Bosentan in patients with Pulmonary Arterial Hypertension (PAP, heart rate, 6MWT); assay type: in vivo, human; conditions: after two weeks of anhydrous betaine 6 g/day bid added to Bosentan 125 mg bid
# Experimental: Nine patients suffering from Pulmonary Arterial Hypertension and taking 125 mg Bosentan bid were randomly assigned to placebo (lactose monohydrate) 6 g/day bid (4 patients) or to anhydrous betaine 6 g/day bid (5 patients) during two weeks. They were assessed for haemodynamic variables and for 6 minutes walking test at inclusion and after the two weeks of medication with placebo or betaine. Pulmonary Artery Pressure (PAP) and Heart rate were non-invasively estimated by Doppler echocardiography method. 6MWT was performed on a treadmill.
# [6] = system: thrombus formation in mesenteric veinules or arterioles; assay: Laser-induced thrombosis in rat mesenteric circulation; assay type: in vivo, Wistar rats; conditions: for duration of embolisation / emboli / laser beams: oral 60 minutes before laser thrombosis
# Text: Male Wistar rats (200-270 gram) were used for the experiments. […] After the medial laparotomy the intestinal loop was placed on the microscope table. Vascular lesions were produced by Argon laser […] This shot causes a well limited lesion of the vascular endothelium (only few cells are destroyed) exposing the thrombogenetic under-layer of the sub-endothelium. The contact of blood with this surface triggers the adherence of platelets via glycoproteins Ib & IIb IIIa. This adherence of platelets is followed by their activation: they form pseudopods and secrete the content of their granules. As a consequence thrombus formation occurs within few seconds. This platelet rich thrombus rapidly enlarges under influence of blood flow, embolises (i.e. is disrupted and carried by the flow from the thrombogenic area) before a new thrombus being formed again on the injured surface. […] Up to four shots can be fired if no emboli (platelet thrombus) are readily appearing. The number of successive laser beams and emboli formed are then recorded. In the presence of an antithrombotic compound a higher number of laser shots are necessary to induce thrombus formation. Similarly, a smaller number of emboli (platelet thrombi) are formed as compared with controls and the duration of the embolisation is also shorter. […] Similarly, a higher number of emboli (platelet thrombi) are formed as compared with controls and the duration of the embolisation is also longer. Betaine is orally administrated to animals at 50 mg/kg, 60 minutes before laser thrombosis.
# [7] = system: Tissue Factor Pathway Inhibitor (TFPI); assay: TFPI activity plasma levels in healthy volunteers after repeated betaine ingestion; assay type: in vivo, human; conditions: for TFPI ACTIVITY: individual donors
# Experimental: as §1, §2
# [8] = system: fresh blood (Thromboelastograph); assay: TEG parameters after betaine oral administration in healthy volunteers; assay type: in vivo, human; conditions: for K / MA / R / α Angle: T0 + 60 mn after 75 mg/kg single oral dose
# Experimental: Betaine is administrated at 75 mg/kg single oral dose at T0 to fastened healthy volunteers just after the basal blood sample. At T0 and T0+60 mn the fresh blood samples are immediately evaluated in the Thromboelastograph (TEG®—Haemoscope Corp.—Illinois).
# R parameter corresponds to […] initial fibrin formation, and is functionally related to plasma clotting factors and clot formation.
# [9] = system: fresh blood (Thromboelastograph); assay: as above; assay type: in vivo, human; conditions: evaluated with TEG
# [10] = system: blood (rate of initial fibrin formation); assay: TEG at each blood draw during repeated betaine ingestion; assay type: in vivo, human; conditions: compared to the baseline values; 6 g daily for 1 week, then 3 g
# Experimental: as §1
# [11] = system: whole blood platelet aggregation; assay: Whole blood aggregation, ADP 5 μM; assay type: in vivo, Wistar rats; conditions: oral
# Experimental: Blood is sampled by intracardiac puncture on trisodium citrate solution (3, 8% sodium citrate/blood 1/9 vv) using the 2 syringes technique.
# ADP 5 μM in final concentration is used as agonist. Amplitudes are expressed in ohms (Ω) and velocities in ohm/min (Ω/min)
# [12] = ASA 50 mg/kg iv 30 min before ischemia induction, n = 5
# [13] = ASA 200 mg/kg iv 30 min before ischemia induction, n = 10
# [14] = betaine oral administration, healthy volunteers (n=10)
# [15] = sample b: fasted, after 6 g daily (2×3) for 1 week
# [16] = sample c: one hour after a further 3 g oral dose following 1 week of 6 g daily
# [17] = plasma, Post = T0+60 mn after 75 mg/kg single oral dose, individual volunteers
# [18] = healthy volunteers, 60 minutes after oral administration
# [19] = mean T0 + 60 mn versus mean basal value
# [20] = Betaine 10 mg/kg sc 1 h before ischemia induction, n = 10
# [21] = Betaine 10 mg/kg sc at the end of ischemia induction, n = 10, (*) P<0,05
# [22] = Celebrex 10 mg + saline, individual rats
# [23] = Celebrex 10 mg + saline, mean of 6 rats
# [24] = NS 398 5 mg + saline, individual rats
# [25] = NS 398 5 mg + saline, mean of 6 rats
structure (smiles),measurement,setting,value
"CC(=O)Oc1ccccc1C(=O)O [ASA, Acetylsalicylic acid, reference compound]","Red Ischemic Area, Excluding Blue Evan Penumbra",[1]; [12],0.322 cm^2
same,Weight of ischemic area,[1]; [12],35.0 mg
same,"Red Ischemic Area, Excluding Blue Evan Penumbra",[1]; [13],0.29 cm^2
same,Weight of ischemic area,[1]; [13],40 mg
"C[N+](C)(C)CC(=O)O [Betaine, glycine betaine]",TFPI concentration plasma levels,[2]; [14],increased
same,TFPI CONCENTRATION,[2]; [15],59.45 ng/mL and 66.23 ng/mL and 84.35 ng/mL and 47.14 ng/mL and 64.57 ng/mL and 76.40 ng/mL and 93.34 ng/mL and 47.28 ng/mL and 70.31 ng/mL and 89.81 ng/mL
same,TFPI CONCENTRATION,[2]; [16],86.98 ng/mL and 70.38 ng/mL and 76.12 ng/mL and 70.52 ng/mL and 82.62 ng/mL and 89.19 ng/mL and 87.74 ng/mL and 58.62 ng/mL and 63.25 ng/mL and 83.38 ng/mL
same,Nitric oxide levels,[3]; [14],increased
same,Nitric oxide plasma levels Conc,[3]; [15],29.11 and 28.89 and 9.11 and 26.28 and 20.2 and 22.59 and 13.24 and 21.5 and 24.11 and 14.11
same,Nitric oxide plasma levels Conc (×2),[3]; [15],58.217 and 57.783 and 18.217 and 52.565 and 40.391 and 45.174 and 26.478 and 43 and 48.217 and 28.217
same,Nitric oxide plasma levels Conc,[3]; [16],14.54 and 41.07 and 39.96 and 27.8 and 26.72 and 22.8 and 25.85 and 11.93 and 31.28 and 27.15
same,Nitric oxide plasma levels Conc (×2),[3]; [16],29.087 and 82.13 and 79.957 and 55.609 and 53.435 and 45.609 and 51.696 and 23.87 and 62.565 and 54.304
same,Nitric oxide levels,"[4]; oral administration, all tested volunteers",markedly increased
same,Conc. (2) (nitric oxide),[4]; [17],41.81 and 24.14 and 65.53 and 114.21 and 70.19 and 72.51
same,Conc. (nitric oxide),[4]; [17],20.91 and 12.07 and 32.77 and 57.42 and 35.09 and 36.26
same,Heart rate 2,[5]; individual patients,84 beats/minute and 67 beats/minute and 74 beats/minute and 69 beats/minute and 72 beats/minute
same,Week 2 ECO 2 PAP,[5]; individual patients,71 mmHg and 60 mmHg and 80 mmHg and 65 mmHg and 58 mmHg
same,6MWT 2,[5]; mean of 5 patients,413 m
same,Heart rate 2,[5]; mean of 5 patients,73.2 beats/minute
same,Week 2 ECO 2 PAP,[5]; mean of 5 patients,66.8 mmHg
same,6MWT 2,"[5]; treadmill, individual patients",380 m and 504 m and 360 m and 411 m and 410 m
same,"Number of laser beams, number of emboli and duration of embolisation relative to saline control values",[6]; Betaine co-administration with selective COX 2 inhibitors,normalise
same,Protection from selective COX 2 inhibitors thrombogenicity,"[6]; rats, Betaine co-administered orally at 50 mg/kg",clearly protects animals from selective COX 2 inhibitors thrombogenicity
same,TFPI activity plasma levels,[7]; [14],increased
same,TFPI ACTIVITY,[7]; [15],3.30 U/ml and 181.61 ng/ml and 2.74 U/ml and 150.83 ng/ml and 2.66 U/ml and 146.34 ng/ml and 2.30 U/ml and 126.36 ng/ml and 2.17 U/ml and 119.46 ng/ml and 4.66 U/ml and 256.55 ng/ml and 3.39 U/ml and 186.37 ng/ml and 2.99 U/ml and 164.44 ng/ml and 3.52 U/ml and 193.76 ng/ml and 4.43 U/ml and 243.59 ng/ml
same,TFPI ACTIVITY,[7]; [16],3.60 U/ml and 197.99 ng/ml and 2.19 U/ml and 120.49 ng/ml and 1.71 U/ml and 94.20 ng/ml and 2.74 U/ml and 150.83 ng/ml and 2.98 U/ml and 163.73 ng/ml and 4.53 U/ml and 248.91 ng/ml and 3.65 U/ml and 200.57 ng/ml and 3.23 U/ml and 177.73 ng/ml and 3.45 U/ml and 189.62 ng/ml and 4.03 U/ml and 221.52 ng/ml
same,K,[8]; individual volunteers,2.5 mn and 1.8 mn and 2.0 mn and 1.3 mn (2×) and 2.7 mn
same,MA,[8]; individual volunteers,52.6 mm and 65.0 mm and 56.8 mm and 65.8 mm and 61.9 mm and 70.1 mm
same,R,[8]; individual volunteers,5.8 mn and 7.3 mn and 7.4 mn and 4.8 mn and 8.4 mn and 6.3 mn
same,α Angle,[8]; individual volunteers,57.5 ° and 65.5 ° and 64.2 ° and 71.9 ° and 66.9 ° and 70.4 °
same,K,[8]; mean of 6 volunteers,1.9 mn
same,MA,[8]; mean of 6 volunteers,62.0 mm
same,R,[8]; mean of 6 volunteers,6.8 mn
same,α Angle,[8]; mean of 6 volunteers,66.1 °
same,Blood coagulation (R parameter),[8]; [18],significantly prolonged
same,Other TEG parameters,[8]; [18],remained stable
same,Δ K,[8]; [19],−8%
same,Δ MA,[8]; [19],+3%
same,Δ R,[8]; [19],+45%
same,Δ α Angle,[8]; [19],+1%
same,"Red Ischemic Area, Excluding Blue Evan Penumbra",[1]; [20],0.335 cm^2
same,Weight of ischemic area,[1]; [20],36 mg
same,"Red Ischemic Area, Excluding Blue Evan Penumbra",[1]; [21],0.28 cm^2
same,Weight of ischemic area,[1]; [21],25 mg
same,Efficacy in the stroke model compared with Aspirin,"[1]; rat, Betaine 10 mg/kg sc",better efficacy than Aspirin
same,Crossing of encephalic barrier,"[1]; rat, after being present in blood stream",ability to cross encephalic barrier
same,R prolongation compared with Lovenox in post orthopaedic surgery patients,[9],as potent as Lovenox® anticoagulation
same,"TEG reaction time, i.e. rate of initial fibrin formation",[10],marked prolongation
Cc1ccc(-c2cc(C(F)(F)F)nn2-c2ccc(S(N)(=O)=O)cc2)cc1 [Celebrex ®],amplitude,[11]; [22],13 Ω (3×) and 12 Ω and 14 Ω and 21 Ω
same,velocity,[11]; [22],8 Ω/min (2×) and 7 Ω/min (2×) and 13 Ω/min and 9 Ω/min
same,amplitude,[11]; [23],14.33 Ω
same,velocity,[11]; [23],8.67 Ω/min
same,duration of embolisation,[6]; [22],4 (2×) and 5 (3×) and 9
same,emboli,[6]; [22],9 and 8 and 11 (2×) and 17 and 12
same,laser beams,[6]; [22],2 (3×) and 1 (3×)
same,duration of embolisation,[6]; [23],5.33
same,emboli,[6]; [23],11.33
same,laser beams,[6]; [23],1.5
CS(=O)(=O)Nc1ccc([N+](=O)[O-])cc1OC1CCCCC1 [NS 398],amplitude,[11]; [24],9 Ω (2×) and 10 Ω and 2 Ω and 12 Ω and 6 Ω
same,velocity,[11]; [24],9 Ω/min and 7 Ω/min (4×) and 5 Ω/min
same,amplitude,[11]; [25],8 Ω
same,velocity,[11]; [25],7 Ω/min
same,duration of embolisation,[6]; [24],5 (2×) and 4 (2×) and 3 and 2
same,emboli,[6]; [24],11 and 9 (2×) and 10 and 7 and 8
same,laser beams,[6]; [24],2 (5×) and 1
same,duration of embolisation,[6]; [25],3
same,emboli,[6]; [25],9
same,laser beams,[6]; [25],1.83
